Molecules are shown by their SMILES. Converted amounts (≈) assume the structure as drawn. Read-outs that look alike come from different tables or passages of the source. Some results are limits rather than exact numbers.

Series [1] is described as follows: Rat plasma stability of selected prodrugs (37° C., RP-HPLC). Particulars: for % comp. 0′ / % comp. 60′ / % comp. 120′ / % comp. 240′ / % comp. 360′ / % comp. 480′: 37° C., peak area; for % comp. 0′: 0 minutes; for % comp. 60′: 60 minutes; for % comp. 120′: 120 minutes; for % comp. 240′: 240 minutes; for % comp. 360′: 360 minutes; for % comp. 480′: 480 minutes. In kind it is in vitro ADME. The protocol:
Using 1 mg/mL stock solutions of a prodrug described in Example 6.8 above in acetonitrile, 990 μL of rat plasma was spiked with 10 μL of conjugate. The plasma spikes were incubated at 37° C. 100 μL of each sample at each time-point was removed and the reaction was quenched with 500 μL of acetonitrile. Each sample was vortexed and centrifuged immediately and the resultant supernatant was removed, discarding the pellet. The supernatant was concentrated and reconstituted with 100 μL of 30% acetonitrile. Prior to transferring samples to HPLC vials, the samples were centrifuged for 15 minutes at 14000 rpm at 2° C. to remove particulates. 10 μL of 10 μg/mL standard and 75 μL of reconstituted sample were injected for RP-HPLC analysis.
The stability of the prodrugs was measured by analyzing samples at the following time-points: 0, 60, 120, 240, 360, and 480 minutes. Retention time, peak area, and UV spectrum were measured for each sample and standard. […] A Waters 2690 HPLC was used for sample analysis (column: Delta Pak C18 Guard Column, C18, 5 m, 2.1 mm×50 mm; Collected spectrum: 210-380 nm. Extracted chromatogram: 240 nm; Mobile Phase; 0.1% TFA in Water/0.1% TFA in acetonitrile; flow Rate: 0.5 mL/minute).

Series [2] can be described thus: Oral absorption in rats, parent compound in plasma by LC/MS/MS. Particulars: rat, p.o., result in words; for Oral Absorption: first part of Table 2.
Experimental: 100 μL of plasma was extracted with 500 μL of acetonitrile, vortexed and centrifuged. The supernatant was removed, evaporated to dryness, and then reconstituted with 100 μL of 30% methanol. The reconstituted samples were then centrifuged to remove particulates. The supernatant was removed and transferred to HPLC vials for detection and quantitation of the parent compound by LC/MS/MS.
Series [3] can be described thus: pH 2.0 stability of prodrugs of the native compound (0.06M phosphate buffer, 37° C., 2 hours, RP-HPLC). As to conditions: for % Area of Pro-drug / % Area NC: pH 2.0, 37° C., 2 hours, RP-HPLC; for % Area NC: native compound formed; for pH 2 Stability: pH 2.0 phosphate buffer, 37° C.
Experimental: The samples were incubated in a water bath at 37° C. for 2 hours. Each sample was then removed from the water bath and vortexed.
A short description of series [4]: Chemical hydrolysis of Dilantin®-conjugate (PEG-3) at a pH of about 2. Particulars: 0.06M phosphate buffer pH 2.0, 37° C. In kind it is physicochemical. The protocol:
Aliquots of a stock solution of Dilantin®-PEG3 conjugate in acetonitrile were spiked into 0.06M phosphate buffer, pH 2.0 (2 μl stock solution in 998 μl buffer). The sample was incubated in a water bath at 37° C. At time points one hour apart, a portion of the sample was removed and submitted for immediate analysis by RP-HPLC.

Series [5] is described as follows: Stability of Dilantin®-PEG3 conjugate in rat plasma (spike controls, RP-HPLC). The format is in vitro ADME. The protocol: Also using a stock solution of Dilantin®-PEG3 conjugate in acetonitrile, the following spike controls were prepared in rat plasma: 1 μg/ml, 750 ng/ml, 500 ng/ml and 250 ng/ml. After vortexing, […] of acetonitrile was added. Each sample was centrifuged immediately and the resultant supernatant was removed and the pellet discarded. The supernatant was concentrated and reconstituted with […] of 30% acetonitrile. […] Samples were submitted for RP-HPLC anaylsis. […] Thus, near complete plasma hydrolysis of the conjugate may occur within 1 minute. Studies were repeated a second day to confirm results.

Series [6] is described as follows: Solubility of Dilantin®-PEG3 conjugate in acetonitrile and deionized water (HPLC). The format is physicochemical. The protocol: 5,5-diphenylhydrantoin and Dilantin®-PEG3 conjugate prodrug solutions were made in acetonitrile with concentrations of 1.12 mg/mL and 0.8 mg/mL, respectively.
Solutions of 5,5-diphenylhydrantoin and Dilantin®-PEG3 conjugate were then made in deionized water at concentrations of 0.99 mg/mL and 0.93 mg/mL, respectively. These solutions were mixed well by vortexing. 1 mL aliquots were taken and spun by centrifuge at 5000 rpm for five minutes. The resultant supemant was taken and analyzed by HPLC for solution concentration. The concentration of 5,5-diphenylhydrantoin was 4 μg/mL. The concentration of Dilantin®-PEG3 conjugate was 160 μg/mL.

`COC(=O)C1=C(C)NC(C)=C(C(=O)OC)C1c1cccc(N(C(=O)NCCCN2CCC(c3cccc(OC)c3)CC2)C(=O)OC(CO)CO)c1.Cl` [Compound 16]: in series [1] (rat plasma), the “% comp. 0′” value is reported as 0%, the “% comp. 60′” value is recorded as 0%, the “% comp. 120′” value turned out to be 0% and the “% comp. 240′” value was determined as 1%. Moreover, in series [1] (rat plasma), the “% comp. 360′” value stood at 1% and the “% comp. 480′” value was determined as 1%. In series [1] (rat plasma, result in words), the “stability in rat plasma” value is reported as “unstable”. Further, the “prodrug converted to the native compound” value in series [1] (within 30 seconds of being introduced to rat plasma) was ~100%. Further, the “Oral Absorption (Relative AUCs)” value in series [2] (second part of Table 2) is “Minimal”.

With `COCCOC(=O)N(C(=O)NCCCN1CCC(c2cccc(OC)c2)CC1)c1cccc(C2C(C(=O)OC)=C(C)NC(C)=C2C(=O)OC)c1.Cl` [Compound 22], in series [3], the “% Area of Pro-drug” value was 100%, the “% Area NC” value turned out to be 0% and the “pH 2 Stability” value is on record as >2 h.

With `CCOC(=O)N(C(=O)NCCCN1CCC(c2cccc(OC)c2)CC1)c1cccc(C2C(C(=O)OC)=C(C)NC(C)=C2C(=O)OC)c1.Cl` [Compound 14], in series [1] (rat plasma), the “% comp. 0′” value was 98.0%, the “% comp. 60′” value is reported as 98.0%, the “% comp. 120′” value was 97.5% and the “% comp. 240′” value is reported as 96.5%. Further, in series [1] (rat plasma), the “% comp. 360′” value was 96.0% and the “% comp. 480′” value came to 95.0%. For the same compound, the “pH 2 Stability” value in series [3] is >2 h.

With `COCCOCCOCCOCCOC(=O)N(C(=O)NCCCN1CCC(c2cccc(OC)c2)CC1)c1cccc(C2C(C(=O)OC)=C(C)NC(C)=C2C(=O)OC)c1.Cl` [Compound 17], in series [1] (rat plasma), the “% comp. 0′” value is recorded as 99.7%, the “% comp. 60′” value came to 99.0%, the “% comp. 120′” value worked out at 98.5% and the “% comp. 240′” value is given as 98.0%. In addition, in series [1] (rat plasma), the “% comp. 360′” value is on record as 97.0% and the “% comp. 480′” value is recorded as 96.0%. For the same compound, in series [3], the “% Area of Pro-drug” value was 100%, the “% Area NC” value worked out at 0% and the “pH 2 Stability” value is >2 h.

Turning to `CCOC(=O)OCCOCCOCCOC` [Compound 5], the “pH 2 Stability” value in series [3] is “None”.

With `COCCOCCOCCOCCOCCOCCOCCOCCOC(=O)N(C(=O)NCCCN1CCC(c2cccc(OC)c2)CC1)c1cccc(C2C(C(=O)OC)=C(C)NC(C)=C2C(=O)OC)c1.Cl` [Compound 19], in series [1] (rat plasma), the “% comp. 0′” value is on record as 97.0%, the “% comp. 60′” value stood at 97.0%, the “% comp. 120′” value is 96.5% and the “% comp. 240′” value stood at 96.0%. In series [1] (rat plasma), the “% comp. 360′” value amounted to 95.3% and the “% comp. 480′” value amounted to 94.0%. The “pH 2 Stability” value in series [3] was >2 h.

Take `CCOCCOCCOCCC(=O)OCC` [Compound 2]: the “pH 2 Stability” value in series [3] is listed as “None”.

Consider `COCCOCCOCCOC(=O)N(C(=O)NCCCN1CCC(c2cccc(OC)c2)CC1)c1cccc(C2C(C(=O)OC)=C(C)NC(C)=C2C(=O)OC)c1.Cl` [Compound 13], for which, in series [1] (rat plasma), the “% comp. 0′” value is listed as 99.0%, the “% comp. 60′” value turned out to be 98.0%, the “% comp. 120′” value was 98.0% and the “% comp. 240′” value was 97.0%. In series [1] (rat plasma), the “% comp. 360′” value came to 96.0% and the “% comp. 480′” value is recorded as 95.0%. Moreover, in series [3], the “% Area of Pro-drug” value is 100%, the “% Area NC” value is 0% and the “pH 2 Stability” value was >2 h.

For the compound `COC(=O)C1=C(C)NC(C)=C(C(=O)OC)C1c1cccc(NC(=O)NCCCN2CCC(c3cccc(OC)c3)CC2)c1` [Native drug, 1,4-Dihydro-[3-[[[[3-[4-(3-methoxyphenyl)-1-piperidinyl]propyl]amino]carbonyl]amino]phenyl]-2,6-dimethyl-3,5-pyridinedicarboxylic acid, dimethyl ester], the “pH 2 Stability” value is listed as >2 h.

For `COCCOCCOCCOC(=O)N1C(=O)NC(c2ccccc2)(c2ccccc2)C1=O` [Dilantin®-PEG3 conjugate], the “Dilantin ® -PEG3 (Remaining), %” value was 100% in series [4] (time 0 hours), 96.79% in series [4] (time 2 hours) and 94.99% in series [4] (time 3 hours). The “time to near complete plasma hydrolysis of the conjugate” value in series [5] (rat plasma) is ≤ 1 min. Besides, the “species found in extracted rat plasma samples” value in series [5] (rat plasma spiked at 1 μg/ml, 750, 500 and 250 ng/ml, RP-HPLC) was “only the presence of phenyloin”. In series [6] (acetonitrile, 1.12 mg/mL (5,5-diphenylhydrantoin) and 0.8 mg/mL (conjugate)), this compound returned a solubility in acetonitrile of 100%. In series [6] (deionized water), the “solubility in water compared with native drug” value is listed as “more soluble in water than the native drug”. The “concentration in supernatant (solubility in water)” value in series [6] (deionized water, made at 0.99 mg/mL and 0.93 mg/mL, centrifuged, HPLC) worked out at 160 µg/mL.

As to `CCOC(=O)CCOCCOCCOC` [Compound 1], in series [3], the “pH 2 Stability” value is listed as “None”.

`COCCOCCOCCOC(=O)N(C(=O)NCCCN1CCC(c2cccc(OC)c2)CC1)c1cccc(C2C(C(=O)OC)=C(C)NC(C)=C2C(=O)OC)c1` [Compound 6]: the “Oral Absorption” value in series [2] is given as “Not Detected”. The “pH 2 Stability” value in series [3] is reported as >2 h.

Turning to `O=C1NC(=O)C(c2ccccc2)(c2ccccc2)N1` [5,5-diphenylhydrantoin, reference compound], the solubility in acetonitrile in series [6] worked out at 100%. In addition, in series [6] (water, thermodynamic from solid), the concentration in solution (solubility) came to 4 µg/mL (≈ 15.9 µM).

As to `COCCOCCOCCOCCOCCOCCOCCOCCOC(=O)N(C(=O)NCCCN1CCC(c2cccc(OC)c2)CC1)c1cccc(C2C(C(=O)OC)=C(C)NC(C)=C2C(=O)OC)c1` [Compound 8], the “Oral Absorption” value in series [2] was “Not Detected”. In series [3], the “pH 2 Stability” value is >2 h.

In the case of `CCOC(=O)CCOCCOCCOCCOCCOCCOCCOCCOCCOC` [Compound 3], the “pH 2 Stability” value in series [3] is recorded as “None”.

Turning to `CCOC(=O)COCCOCCOC` [Compound 4], the “pH 2 Stability” value in series [3] is listed as “None”.

As to `COCCOCCOC(=O)N(C(=O)NCCCN1CCC(c2cccc(OC)c2)CC1)c1cccc(C2C(C(=O)OC)=C(C)NC(C)=C2C(=O)OC)c1.Cl` [Compound 21], in series [3], the “% Area of Pro-drug” value is listed as 100%, the “% Area NC” value came to 0% and the “pH 2 Stability” value was >2 h.

As for `COC(=O)C1=C(C)NC(C)=C(C(=O)OC)C1c1cccc(N(C(=O)NCCCN2CCC(c3cccc(OC)c3)CC2)C(=O)OC)c1.Cl` [Compound 11], the “pH 2 Stability” value in series [3] is listed as >2 h.

For the origin of these results see patent US20040152769A1, “Modified carbamate-containing prodrugs and methods of synthesizing same” (priority 2002, published 2004).
